Test results taken from patent publication US12077503B2, “Substituted cyclic amides and their use as herbicides” (FMC CORPORATION, priority 2015, dated 2024).

Legend:
Format in all cases: in vivo
[1] = system: pigweed (Amaranthus retroflexus); assay: Test A preemergence; conditions: Amaranthus retroflexus, pre-emergence, 240 h; for pest or weed control at 125 g/ha: 125 g ai/ha, preemergence, 0 to 100 scale where 0 is no effect and 100 is complete control, read-out: Pigweed plant response rating; for pest or weed control at 500 g/ha: 500 g ai/ha, Preemergence, visual injury vs untreated controls after approximately 10 d, read-out: Pigweed plant response rating (0 to 100 scale where 0 is no effect and 100 is complete control)
[2] = system: Kochia (Kochia scoparia); assay: Test A preemergence; conditions: Bassia scoparia, pre-emergence, 240 h; for pest or weed control at 125 g/ha: 125 g ai/ha, preemergence, 0 to 100 scale where 0 is no effect and 100 is complete control, read-out: Kochia plant response rating; for pest or weed control at 500 g/ha: 500 g ai/ha, Preemergence, visual injury vs untreated controls after approximately 10 d, read-out: Kochia plant response rating (0 to 100 scale where 0 is no effect and 100 is complete control)
Summary of the method: (§1)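 Seeded soil received test chemicals as a preemergence directed spray, and seedlings at one to two leaves, 2–10 cm tall, received them postemergence, in a non-phytotoxic, surfactant-containing solvent mixture. Pots were held in a greenhouse for approximately 10 d, then rated for injury from 0, no effect, to 100, complete control.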

[3] = system: giant foxtail (Setaria faberii); assay: Test A preemergence; conditions: Setaria faberi, pre-emergence, 240 h; for pest or weed control at 125 g/ha: 125 g ai/ha, preemergence, 0 to 100 scale where 0 is no effect and 100 is complete control, read-out: Foxtail, Giant plant response rating; for pest or weed control at 500 g/ha: 500 g ai/ha, Preemergence, visual injury vs untreated controls after approximately 10 d, read-out: Foxtail, Giant plant response rating (0 to 100 scale where 0 is no effect and 100 is complete control)
Summary of the method: as §1

[4] = system: barnyardgrass (Echinochloa crus-galli); assay: Test A preemergence; conditions: Echinochloa crus-galli, pre-emergence, 240 h; for pest or weed control at 125 g/ha: 125 g ai/ha, preemergence, 0 to 100 scale where 0 is no effect and 100 is complete control, read-out: Barnyardgrass plant response rating; for pest or weed control at 500 g/ha: 500 g ai/ha, Preemergence, visual injury vs untreated controls after approximately 10 d, read-out: Barnyardgrass plant response rating (0 to 100 scale where 0 is no effect and 100 is complete control)
Summary of the method: as §1

[5] = system: ragweed (common ragweed, Ambrosia elatior); assay: Test A preemergence; conditions: Ambrosia artemisiifolia, pre-emergence, 240 h; for pest or weed control at 125 g/ha: 125 g ai/ha, preemergence, 0 to 100 scale where 0 is no effect and 100 is complete control, read-out: Ragweed plant response rating; for pest or weed control at 500 g/ha: 500 g ai/ha, Preemergence, visual injury vs untreated controls after approximately 10 d, read-out: Ragweed plant response rating (0 to 100 scale where 0 is no effect and 100 is complete control)
Summary of the method: as §1

[6] = system: ryegrass, Italian (Italian ryegrass, Lolium multiflorum); assay: Test A preemergence; conditions: Lolium multiflorum, pre-emergence, 240 h; for pest or weed control at 125 g/ha: 125 g ai/ha, preemergence, 0 to 100 scale where 0 is no effect and 100 is complete control, read-out: Ryegrass, Italian plant response rating; for pest or weed control at 500 g/ha: 500 g ai/ha, Preemergence, visual injury vs untreated controls after approximately 10 d, read-out: Ryegrass, Italian plant response rating (0 to 100 scale where 0 is no effect and 100 is complete control)
Summary of the method: as §1

[7] = system: Kochia (Kochia scoparia); assay: Test A postemergence; conditions: Bassia scoparia, post-emergence, 240 h, 125 g ai/ha, postemergence, visual injury rating after approximately 10 d; read-out: Kochia plant response rating (0 to 100 scale, 0 no effect, 100 complete control)
Summary of the method: as §1

[8] = system: Galium (catchweed bedstraw, Galium aparine); assay: Test A postemergence; conditions: Galium, post-emergence, 240 h, 125 g ai/ha, postemergence, visual injury rating after approximately 10 d; read-out: Galium plant response rating (0 to 100 scale, 0 no effect, 100 complete control)
Summary of the method: as §1

[9] = system: wheat (Triticum aestivum); assay: Test A postemergence; conditions: Triticum aestivum, post-emergence, 240 h, 125 g ai/ha, postemergence, visual injury rating after approximately 10 d; read-out: Wheat plant response rating (0 to 100 scale, 0 no effect, 100 complete control)
Summary of the method: as §1

[10] = system: ragweed (common ragweed, Ambrosia elatior); assay: Test A postemergence; conditions: Ambrosia artemisiifolia, post-emergence, 240 h, 125 g ai/ha, postemergence, visual injury rating after approximately 10 d; read-out: Ragweed plant response rating (0 to 100 scale, 0 no effect, 100 complete control)
Summary of the method: as §1

[11] = system: ryegrass, Italian (Italian ryegrass, Lolium multiflorum); assay: Test A postemergence; conditions: Lolium multiflorum, post-emergence, 240 h, 125 g ai/ha, postemergence, visual injury rating after approximately 10 d; read-out: Ryegrass, Italian plant response rating (0 to 100 scale, 0 no effect, 100 complete control)
Summary of the method: as §1

[12] = system: barnyardgrass (Echinochloa crus-galli); assay: Test B flooded paddy test; conditions: Echinochloa crus-galli, Flood, 250 g ai/ha; scale of 0 to 100 where 0 is no effect and 100 is complete control; read-out: Barnyardgrass plant response rating
Summary of the method: (§2)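 Flooding to 3 cm over soil accompanied treatment, which consisted of adding compound to the standing water around 2-leaf plants; depth was then maintained. Visual assessment versus controls followed at 13 to 15 d (scale 0–100, 0 meaning no effect).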

[13] = system: sedge, umbrella (small-flower umbrella sedge, Cyperus difformis); assay: Test B flooded paddy test; conditions: Cyperus difformis, Flood, 250 g ai/ha; scale of 0 to 100 where 0 is no effect and 100 is complete control; read-out: Sedge, Umbrella plant response rating
Summary of the method: as §2

[14] = system: rice (Oryra sativa); assay: Test B flooded paddy test; conditions: Oryza sativa, Flood, 250 g ai/ha; scale of 0 to 100 where 0 is no effect and 100 is complete control; read-out: Rice plant response rating
Summary of the method: as §2

[15] = system: ducksalad (Heteranthera limosa); assay: Test B flooded paddy test; conditions: Heteranthera limosa, Flood, 250 g ai/ha; scale of 0 to 100 where 0 is no effect and 100 is complete control; read-out: Ducksalad plant response rating
Summary of the method: as §2

Row | SMILES | pest or weed control at 125 g/ha [1] [%] | pest or weed control at 500 g/ha [1] [%] | pest or weed control at 125 g/ha [2] [%] | pest or weed control at 500 g/ha [2] [%] | pest or weed control at 125 g/ha [3] [%] | pest or weed control at 500 g/ha [3] [%] | pest or weed control at 125 g/ha [4] [%] | pest or weed control at 500 g/ha [4] [%] | pest or weed control at 125 g/ha [5] [%] | pest or weed control at 500 g/ha [5] [%] | pest or weed control at 125 g/ha [6] [%] | pest or weed control at 500 g/ha [6] [%] | pest or weed control at 125 g/ha [7] [%] | pest or weed control at 125 g/ha [8] [%] | plant injury at 125 g/ha [9] [%] | pest or weed control at 125 g/ha [10] [%] | pest or weed control at 125 g/ha [11] [%] | pest or weed control at 250 g/ha [12] [%] | pest or weed control at 250 g/ha [13] [%] | pest or weed control at 250 g/ha [14] [%] | further results
1 | O=C1NC[C@H](c2ccc3c(c2)CCCO3)[C@H]1C(=O)Nc1ccccc1F [Compound 885] | 0 | 0 | 0 | 0 | 50 | 80 | 70 | 90 | 0 | 0 | 0 | 20 | 0 | 20 | 0 | 0 | 0 | 0 | 0 | 0 | pest or weed control at 250 g/ha [15]: 60%
2 | O=C1NC[C@H](c2cncc(C(F)(F)F)c2)[C@H]1C(=O)Nc1ccccc1F [Compound 887] | 0 | 0 | 0 | 20 | 80 | 90 | 90 | 90 | 0 | 0 | 0 | 0 | 0 | 0 | 0 | 0 | 0 | 50 | 0 | 0 | pest or weed control at 250 g/ha [15]: 65%
3 | COc1c(F)ccc([C@H]2CN(C)C(=O)[C@@H]2C(=O)Nc2cccc(F)c2F)c1Cl [Compound 893] | 30 | 50 | 80 | 90 | 90 | 90 | 90 | 100 | 40 | 70 | 40 | 90 | 60 | 50 | 30 | 30 | 60 | 90 | 0 | 10 | pest or weed control at 250 g/ha [15]: 90%
4 | COc1c(F)ccc([C@H]2CN(C)C(=O)[C@@H]2C(=O)Nc2ccc(F)cc2F)c1Cl [Compound 894] | 20 | 50 | 60 | 90 | 90 | 100 | 90 | 100 | 0 | 40 | 50 | 60 | 50 | 40 | 20 | 0 | 50 | 70 | 0 | 0 | pest or weed control at 250 g/ha [15]: 100%
5 | CN1C[C@H](c2cc(F)c(C(F)(F)F)c(F)c2)[C@@H](C(=O)Nc2cccc(F)c2F)C1=O [Compound 898] | 60 | 80 | 70 | 90 | 90 | 90 | 90 | 90 | 60 | 60 | 40 | 70 | 0 | 0 | 40 | 0 | 50 | 55 | 0 | 0 | pest or weed control at 250 g/ha [15]: 70%
6 | O=C1NC[C@H](c2ccc3c(c2)CCO3)[C@H]1C(=O)Nc1ccc(F)cc1F [Compound 902] | 0 | 0 | 0 | 0 | 30 | 90 | 40 | 90 | 0 | 0 | 0 | 20 | 0 | 0 | 0 | 0 | 0 | 0 | 0 | 0 | pest or weed control at 250 g/ha [15]: 75%
